The results in this text go back to patent US20250101062A1, “ANTIMICROBIAL PEPTIDES” (Board of Regents of the University of Nebraska, priority 2023, published 2025).

The structures appear in SMILES notation. In brackets after ≈: the same amount, converted by molar mass. Like-named read-outs stand apart in the source and are kept apart here. Where a SMILES comes first, the peptide text is derived from it.

For one experiment, the system named is S. aureus USA300 LAC. Put plainly: microbe, parasite or virus in culture. Format: cell-based, Staphylococcus aureus. The method, then: (§1) The following resistant bacterial clinical strains were used in this study: S. aureus USA300 LAC, S. epidermidis 1457, E. coli E423-17, P. aeruginosa E411-17, K. pneumoniae E406-17, and A. baumannii B28-16. While the S. aureus USA300 strain is methicillin-resistant, most of the Gram-negative bacteria contain extended-spectrum beta-lactamase and are resistant to beta-lactam antibiotics. Peptide activity against bacteria was tested using an established lab protocol (Mishra, et al. (2017) Acta Biomater., 49:316-328). In brief, a peptide concentration gradient with twofold dilution was made in the 96-well polystyrene microplate at 10 μL per well. Bacteria were grown to the exponential phase (i.e., optical density at 600 nm≈0.5), diluted to ˜10^5 CFU/mL in different percentages of MHB, TSB, or LB, and partitioned into the 96-well microplate at 90 μL per well. […] They were diluted with autoclaved distilled water to obtain different percentages. The microplates were incubated at 37° C. overnight and read on a ChroMate™ 4300 microplate reader at 600 nm (GMI, Ramsey, MN). The peptide concentration in the wells without bacterial growth is the MIC. As is the convention, MIC values were represented as ranges.
(§2) For pH effects on peptide activity, the pH of the medium was adjusted to a targeted pH for the autoclave and then remeasured at room temperature. For salt and serum effects on peptide activity, stock NaCl solution or human serum was added to the media.
(§3) Peptide activity against bacteria were tested using the CLSI standard procedure with minor modifications (Clinical and Laboratory Standards Institute (2018) Performance standards for antimicrobial susceptibility testing, 9th ed.; Mishra, et al. (2019) Proc. Natl. Acad. Sci., 116(27):13517-13522). In brief, a peptide concentration gradient with twofold dilution was made in the 96-well polystyrene microplate at 10 μL per well. Bacteria were grown to the exponential phase (i.e., optical density at 600 nm≈0.5), diluted to ˜10^5 CFU/mL in MHB, and partitioned into the 96-well microplate at 90 μL per well. The microplates were incubated at 37° C. overnight and read on a ChroMate® 4300 Microplate Reader at 600 nm (GMI, Ramsey, MN). The peptide concentration in the wells without bacterial growth is the minimal inhibitory concentration (MIC). As the convention, MIC values were represented as ranges.
(§4) For pH effects on peptide activity, the pH of the medium was adjusted to a targeted pH for autoclave and then remeasured at room temperature. For salt and serum effects on peptide activity, stock NaCl solution or human serum were added to the media.

Another experiment relates to E. coli E423-17. It counts as cell-based, Escherichia coli. To be noted: E423-17. The method, then:
as §1, §2, §3, §4

In a further experiment the test system is S. epidermidis 1457. Put plainly: microbe, parasite or virus in culture. Format: cell-based, Staphylococcus epidermidis. Particulars: read-out: Antimicrobial activity (MIC) S. epidermidis 1457. The method, then:
as §1, §3

The next experiment relates to A. baumannii B28-16. It counts as cell-based, Acinetobacter baumannii. To be noted: B28-16. The method, then: as §1, §3
In a further experiment the test system is P. aeruginosa E411-17. As to the kind of experiment: microbe, parasite or virus in culture. Format: cell-based, Pseudomonas aeruginosa. Particulars: E411-17. The method, then:
as §1, §2, §3, §4

In experiment [1] the test system is S. aureus USA300 LAC biofilms. As to the kind of experiment: Disruption of preformed biofilms in vitro (XTT). It counts as cell-based, Staphylococcus aureus. To be noted: 24 h preformed biofilm. The method, then:
(§5) Effects of Peptides on Established Biofilms in Vitro. Bacteria (S. aureus USA300 LAC and E. coli E423-17) were grown in rich TSB media overnight. A second inoculation was made the next day to reach an exponential phase (OD600˜0.4). Microtiter plates (96 wells, Corning Costar Cat no. 3595), after aliquoting with 180 μL of the culture to each well, were incubated at 37° C. for 24 hours to form biofilms in rich TSB. Media were aspirated post incubation, and the attached biofilms were washed with 1×PBS to remove the planktonic bacteria. […] Biofilms treated with water served as the positive control, while media without bacterial inoculation served as the negative control. Live cells in the biofilms were quantitated using XTT as described above. Absorbance was read at 450 nm (only media with XTT containing wells served as the blank) using a ChroMate™ microtiter plate reader. Percentage biofilm growth for the peptide was plotted by assuming 100% biofilm growth in bacterial control alone. The data were represented as mean±SD; plots were generated using GraphPad prism 7, where * indicates p<0.05, **p<0.01, and ***P<0.001, and ****p<0.0001 (one-way analyses of variance).
LL-37 is known to inhibit bacterial biofilms (Overhage, et al. (2008) Infect. Immun., 76:4176-4182). However, it was unable to disrupt preformed MRSA biofilms in rich media (Mishra, et al. (2016) ACS Med. Chem. Lett., 7:117-121). Next, it was determined whether the diluted MHB medium could be useful to detect biofilm-disrupting activity for LL-37 against MRSA. An established procedure (Mishra, et al. (2016) ACS Med. Chem. Lett., 7:117-121; Duplantier, et al. (2013) Front. Immunol., 4:143) was used wherein biofilms were formed and washed as usual to remove planktonic cells. The biofilms were then treated with peptides in 12.5% MHB for 24 hours. Finally, live cells were quantified with XTT (ATCC). FIG. 2 compares the levels of live cells of MRSA in the preformed biofilms after 24 hour treatment. […] Of note is a similar pattern for both peptides in 12.5% MHB treated at various concentrations.
Bacteria (S. aureus USA300 LAC or P. aeruginosa E411-17) were grown up in TSB media overnight. A second inoculation was made the next day to reach an exponential phase (OD600˜0.4). Microtiter plates (96 wells, Corning Costar Cat No. 3595), after aliquoting with 180 μL of the culture to each well, were incubated at 37° C. for 24 hours to form biofilms in rich TSB. Media were aspirated post incubation and the attached biofilms were washed with 1×PBS to remove the planktonic bacteria. […] Biofilms treated with water served as the positive control while media without bacterial inoculation served as the negative control. Live cells in the biofilms were quantitated using the XTT as described above. Absorbance was read at 450 nm (only media with XTT containing wells served as the blank) using a ChroMate® microtiter plate reader. Percentage biofilm growth (the plot legend is antibiofilm activity) for the peptides was plotted by assuming 100% biofilm growth in bacterial control alone. The data were represented as mean±SD, plots were generated using GraphPad prism 7, where * indicates p<0.05, ** p<0.01, and ***P<0.001, and ****p<0.0001 (one-way analyses of variance).
(Tetrazolium assays rely on reduction of a dye to a coloured formazan, in cell work by metabolically active cells.)

Another experiment relates to E. coli E423-17 biofilms. As to the kind of experiment: Disruption of preformed biofilms in vitro (XTT). Format: cell-based, Escherichia coli. To be noted: 24 h preformed biofilm. The method, then: as §5
Experiment [2] can be described thus: Effect of MHB dilution on antibacterial activity of a panel of antibiotics. Particulars: MHB from 100 to 12.5%. Format: cell-based. The method, then: FIGS. 2A-2D show biofilm disruption activity of human LL-37 (FIGS. 2A and 2B) and 17BIPHE2 (FIGS. 2C and 2D) against the 24 hour preformed biofilms of S. aureus USA300 LAC in different MHB media: 12.5% MHB (FIGS. 2A and 2C) and 100% MHB (FIGS. 2B and 2D). FIGS. 2E-2H show the treatment outcome of LL-37 (FIGS. 2E and 2F) and 17BIPHE2 (FIGS. 2G and 2H) against the 24-hour preformed biofilms of E. coli E423-17 in different MHB media: 12.5% MHB (FIGS. 2E and 2G) and 100% MHB (FIGS. 2F and 2H). […] Growth curves of S. aureus USA 300 LAC (FIGS. 2J-2K) and P. aeruginosa 152 (FIGS. 2L-2M) in 12.5%, 25%, 50% and 100% MHB or TSB medium (curves from bottom to top).
The effects of MHB dilution on the antimicrobial activity of a panel of antibiotics was also compared (FIG. 2I).

With `CC(C)C[C@H](NC(=O)[C@H](CC(N)=O)NC(=O)[C@H](CCCNC(=N)N)NC(=O)[C@@H](CC(C)C)NC(=O)[C@H](Cc1ccc(-c2ccccc2)cc1)NC(=O)[C@H](CC(=O)O)NC(=O)[C@H](CCCCN)NC(=O)[C@@H](CC(C)C)NC(=O)[C@H](CCCNC(=N)N)NC(=O)[C@H](CCC(N)=O)NC(=O)[C@@H](NC(=O)[C@@H](CC(C)C)NC(=O)[C@H](CCCNC(=N)N)NC(=O)[C@H](CCCCN)NC(=O)[C@H](Cc1ccc(-c2ccccc2)cc1)NC(=O)CN)C(C)C)C(=O)N[C@H](C(N)=O)C(C)C` [17BIPHE2] (HELM PEPTIDE1{G.[O=C([C@H](Cc1ccc(-c2ccccc2)cc1)N[*:1])[*:2]].K.R.[dL].V.Q.R.[dL].K.D.[O=C([C@H](Cc1ccc(-c2ccccc2)cc1)N[*:1])[*:2]].[dL].R.N.L.V.[am]}$$$$V2.0; N-terminus and C-terminus assumed), the MIC was 2 to 4 µM against S. aureus USA300 LAC (USA300); 4 µM (≈ 9.02 µg/mL) with S. aureus USA300 LAC (USA300, read-out: Antimicrobial activity (MIC) S. aureus USA300); 8 µM (≈ 18 µg/mL) in the experiment with S. epidermidis 1457. Besides, the “Antimicrobial activity (MIC)” value in the experiment with E. coli E423-17 is below 2 µM. For the same compound, the “Antimicrobial activity (MIC) E. coli E423-17” value in the experiment with E. coli E423-17 is 4 µM. The “Antimicrobial activity (MIC) A. baumannii B28-16” value in the experiment with A. baumannii B28-16 was determined as 4 µM. Besides, in the experiment on P. aeruginosa E411-17, the “Antimicrobial activity (MIC) P. aeruginosa E411-17” value turned out to be 4 µM. In addition, the “peptide concentration showing biofilm disruption” value in experiment [1] (12.5% MHB) was 16 µM. The “peptide concentration at which it started to work on biofilms” value in experiment [1] (100% MHB) came out at 8 µM. In addition, the “live bacteria remained in the biofilms” value in experiment [1] (100% MHB, treated at 16 μM for 24 h) is listed as around 30%. Also, the figures for the effect on biofilms result in the experiment on E. coli E423-17 biofilms (12.5% MHB) and in the experiment on E. coli E423-17 biofilms (100% MHB) were “dose-dependent antibiofilm effect” and “subtle effect”, respectively.

Turning to `C/C(=C\C(=O)OCCCCCCCCC(=O)O)C[C@@H]1OC[C@H](C[C@@H]2O[C@H]2[C@@H](C)[C@H](C)O)[C@@H](O)[C@H]1O` [Muporicin], the “change of MIC / activity” value in the experiment on S. aureus USA300 LAC (MRSA in MHB, 10% human serum) is on record as “fourfold”. For the same compound, the “Antimicrobial activity (MIC)” value was determined as 4 µM in the experiment with S. aureus USA300 LAC (MRSA in MHB, 10% serum); 4 µM in the experiment on S. aureus USA300 LAC (MRSA in MHB, 20% serum); 1 µM with S. aureus USA300 LAC (MRSA in MHB, NaCl (150 mM)); 0.5 µM with S. aureus USA300 LAC (MRSA in MHB, pH 6.3); 1 µM in the experiment on S. aureus USA300 LAC (MRSA in MHB, pH 7.2). Further, in experiment [2], the “change in MIC with dilution of MHB” value was “essentially no changes”.

Turning to `NC[C@H]1O[C@H](O[C@H]2[C@H](O)[C@@H](O[C@H]3O[C@H](CO)[C@@H](O)[C@H](N)[C@H]3O)[C@H](N)C[C@@H]2N)[C@H](N)C[C@@H]1O` [Tobramycin], the MIC is 2 to 4 µM (≈ 0.935 to 1.87 µg/mL) in the experiment on S. aureus USA300 LAC (Staphylococcus aureus, MRSA / USA300, MRSA in MHB, 10% serum, read-out: Antimicrobial activity (MIC)); 4 µM (≈ 1.87 µg/mL) in the experiment on S. aureus USA300 LAC (Staphylococcus aureus, MRSA / USA300, pH 6.3, MRSA in MHB, pH 6.3, read-out: Antimicrobial activity (MIC)); 2 µM (≈ 0.935 µg/mL) with S. aureus USA300 LAC (Staphylococcus aureus, MRSA / USA300, pH 7.2, MRSA in MHB, pH 7.2, read-out: Antimicrobial activity (MIC)). Moreover, the “change in MIC with dilution of MHB” value in experiment [2] was “essentially no changes”.

Regarding `CN[C@H](CC(C)C)C(=O)N[C@H]1C(=O)N[C@@H](CC(N)=O)C(=O)N[C@H]2C(=O)N[C@H]3C(=O)N[C@H](C(=O)N[C@H](C(=O)O)c4cc(O)cc(O)c4-c4cc3ccc4O)[C@H](O)c3ccc(c(Cl)c3)Oc3cc2cc(c3O[C@@H]2O[C@H](CO)[C@@H](O)[C@H](O)[C@H]2O[C@H]2C[C@](C)(N)[C@H](O)[C@H](C)O2)Oc2ccc(cc2Cl)[C@H]1O` [Vancomycin], the MIC in the experiment on S. aureus USA300 LAC (Staphylococcus aureus, MRSA / USA300, pH 6.3, read-out: Antimicrobial activity (MIC), MRSA in MHB, pH 6.3) is 0.5 µM (≈ 0.725 µg/mL); with S. aureus USA300 LAC (Staphylococcus aureus, MRSA / USA300, pH 7.2, read-out: Antimicrobial activity (MIC), MRSA in MHB, pH 7.2), 0.5 µM (≈ 0.725 µg/mL); with S. aureus USA300 LAC (Staphylococcus aureus, MRSA / USA300, read-out: Antimicrobial activity (MIC), MRSA in MHB, 10% serum), 0.5 µM (≈ 0.725 µg/mL); in the experiment with S. aureus USA300 LAC (Staphylococcus aureus, MRSA / USA300, read-out: Antimicrobial activity (MIC), MRSA in MHB, 20% serum), 0.5 to 1 µM (≈ 0.725 to 1.45 µg/mL); with S. aureus USA300 LAC (Staphylococcus aureus, MRSA / USA300, read-out: Antimicrobial activity (MIC), MRSA in MHB, NaCl (150 mM)), 0.5 to 1 µM (≈ 0.725 to 1.45 µg/mL). The “change in MIC with dilution of MHB” value in experiment [2] was “essentially no changes”.
